Laboratory results from publication PMC6948154 (Cell reports, 2019).

How the values were obtained:
[1] = target: Hedgehog acyltransferase (Hhat) (Homo sapiens, UniProt Q5VTY9, Y351A); test: in vitro Shh peptide palmitoylation by purified Y351A Hhat; format: biochemical
[2] = target: Hedgehog acyltransferase (Hhat) (Homo sapiens, UniProt Q5VTY9); test: NBD-palmitoyl-CoA uptake into liposomes with purified Hhat; format: biochemical
Chain of Hedgehog acyltransferase (Hhat) (Homo sapiens, UniProt Q5VTY9) (Q5VTY9 whole entry): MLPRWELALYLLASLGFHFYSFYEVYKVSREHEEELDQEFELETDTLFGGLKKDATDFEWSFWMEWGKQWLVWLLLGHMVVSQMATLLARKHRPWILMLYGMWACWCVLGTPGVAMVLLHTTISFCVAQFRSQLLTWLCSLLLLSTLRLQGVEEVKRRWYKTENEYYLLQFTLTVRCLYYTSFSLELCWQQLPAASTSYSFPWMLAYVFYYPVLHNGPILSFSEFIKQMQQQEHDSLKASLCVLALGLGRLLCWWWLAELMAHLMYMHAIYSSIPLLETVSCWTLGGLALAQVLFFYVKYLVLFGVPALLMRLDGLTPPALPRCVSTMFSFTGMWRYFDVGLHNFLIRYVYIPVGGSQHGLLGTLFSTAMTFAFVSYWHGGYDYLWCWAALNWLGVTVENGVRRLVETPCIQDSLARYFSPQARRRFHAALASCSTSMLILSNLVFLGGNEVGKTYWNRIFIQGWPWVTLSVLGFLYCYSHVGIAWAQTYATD

Chain of Hedgehog acyltransferase (Hhat) (Homo sapiens, UniProt Q5VTY9, Y351A) (Q5VTY9 whole entry Y351A): as the sequence (Q5VTY9 whole entry) above, with Y351A counted along it

Row | IC50 [2] [nM] | Molecule | in vitro Shh peptide palmitoylation by purified Y351A Hhat [1]
1 | – | CC(C)(COP(=O)(O)OP(=O)(O)OC[C@H]1O[C@@H](n2cnc3c(N)ncnc32)[C@H](O)[C@@H]1OP(=O)(O)O)[C@@H](O)C(=O)NCCC(=O)NCCSC(=O)CCCCCCCCCCCCCCCI [[125I] IodoPalmitoyl-CoA] | Y351A retained near-WT levels of Shh palmitoylation activity when assayed in vitro using detergent-solubilized membranes and as a purified enzyme
2 | 2450 | TDI-3410 | –
